The results in this text go back to patent publication US20210267996A1, “Compounds for inhibition of inflammation” (Children`s Medical Center Corporation, priority 2018, published 2021).

One experiment has as its system THP-1 cells. Briefly: Canonical inflammasome pyroptosis, LPS-primed THP-1 cells plus nigericin. Conditions: THP-1, nigericin. The format is cell-based, human.
For the next experiment, the target named is T1, human GSDMD-3C (Homo sapiens, UniProt P57764).
T1 construct: other: GSDMD-3C plus 3C protease; fused on or other part: His6-MBP tag, removed by TEV before use; The engineered 3C site is cut in the well by 3C protease and sets free GSDMD-NT
T1 sequence (P57764 1-271 limits assumed): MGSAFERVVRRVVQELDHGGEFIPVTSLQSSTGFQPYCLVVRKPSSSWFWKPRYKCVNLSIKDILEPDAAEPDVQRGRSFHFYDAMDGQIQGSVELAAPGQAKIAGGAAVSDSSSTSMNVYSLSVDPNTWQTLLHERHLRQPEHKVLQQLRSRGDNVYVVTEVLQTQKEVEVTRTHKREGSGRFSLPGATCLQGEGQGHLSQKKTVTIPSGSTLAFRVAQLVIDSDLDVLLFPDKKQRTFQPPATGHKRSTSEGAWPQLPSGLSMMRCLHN
Briefly: Liposome leakage assay, GSDMD-3C plus 3C protease. Format: biochemical. The note with it: GSDMD-3C plus 3C protease. The method, then: Liposome leakage assay: fluorogenic liposome leakage assay detects leakage of Tb^3+ from Tb^3+-loaded liposomes incubated with GSDMD and caspase-11 (See References 7 and 9). Liposome leakage was detected by an increase in fluorescence when Tb^3+ bound to dipicolinic acid (DPA) in Buffer C. […] The fluorescence intensity of the well was measured at 545 nm with an excitation of 276 nm 1 hr after addition of caspase-11 using a Perkin Elmer EnVision plate reader. The final percent inhibition was calculated as [(fluorescencetest compound−fluorescencenegative control)/(fluorescencepositive control−fluorescencenegative control)]×100, where a well with GSDMD without the test compound was used as positive control, and a well without caspase-11 was used as negative control.
[LC retention time. […] (b).
To determine the relative contribution of caspase-11 inhibition versus GSDMD inhibition by disulfiram in pore formation, the caspase cleavage site in GSDMD was replaced with the rhinovirus 3C protease site (GSDMD-3C) and the 3C protease was used instead of caspase-11 in the liposome leakage assay.

Entries after “also recorded” stand apart in the source; their conditions may differ.

As usually defined, the IC50 is the midpoint of a concentration-inhibition curve.

Method for THP-1 cells: Cell viability assay. […] Primed THP-1 cells were pretreated with each test compound for 1 hr before addition of 20 μM nigericin or medium as control. The number of surviving cells was determined by CellTiter-Glo assay 1.5 hrs later. The final percent cell viability was calculated using the formula [(luminescencetest compound−luminescencencenegative control)/(luminescencencepositive control−luminescencenegative control)]×100, where wells with only LPS were used as positive controls and wells treated with LPS and nigericin were used as negative controls.
Cells were verified to be free of mycoplasma contamination.
Cytotoxicity and cell viability assays: cell death and cell viability were determined by the lactate dehydrogenase release assay using the CytoTox 96 Non-Radioactive Cytotoxicity Assay kit (Promega) and by measuring ATP levels using the CellTiter-Glo Luminescent Cell Viability Assay (Promega), respectively, according to the manufacturer's instructions. Luminescence and absorbance were measured on a BioTek Synergy 2 plate reader.
In FIGS. 4, 6, and 8, PMA-differentiated LPS-primed human THP-1 were pre-treated with indicated concentrations of each compound for 1 h before adding nigericin or medium. The number of surviving cells was determined by CellTiter-Glo assay (FIGS. 4 and 6) and IL-1β in culture supernatants was assessed by ELISA (FIG. 8) 2 hrs later. […] In FIGS. 8 and 9, 40 μM concentration of test compounds were added. […] Graphs show the mean±s.d. and data shown are representative of three independent experiments. **P<0.01.

As to `Cc1ccc(S(=O)(=O)/C=C/C#N)cc1` [Bay 11-7082], the “inhibition of canonical inflammasome pyroptosis” value with THP-1 cells is recorded as “also inhibits the canonical inflammasome pathway; also recorded: more effective at inhibiting canonical inflammasome-dependent pyroptosis than disulfiram in the absence of copper”. For the molecule `CCN(CC)C(=S)SSC(=S)N(CC)CC` [C-23, Tetraethylthiuram disulfide], on human GSDMD-3C, the IC50 stood at 0.52 ± 0.03 µM.
